From patent publication US20070043104A1, “UII-modulating compounds and their use” (priority 2005, published 2007) come the findings set out here.

Each structure is given as a SMILES string. Counter-ions that a name gives are not always drawn.

The experiment addresses T1, human urotensin II receptor (Homo sapiens, UniProt Q9UKP6).
T1 construct: expressed in transfected cells; host or cells: NIH3T3 cells
T1 sequence (Q9UKP6 1-389): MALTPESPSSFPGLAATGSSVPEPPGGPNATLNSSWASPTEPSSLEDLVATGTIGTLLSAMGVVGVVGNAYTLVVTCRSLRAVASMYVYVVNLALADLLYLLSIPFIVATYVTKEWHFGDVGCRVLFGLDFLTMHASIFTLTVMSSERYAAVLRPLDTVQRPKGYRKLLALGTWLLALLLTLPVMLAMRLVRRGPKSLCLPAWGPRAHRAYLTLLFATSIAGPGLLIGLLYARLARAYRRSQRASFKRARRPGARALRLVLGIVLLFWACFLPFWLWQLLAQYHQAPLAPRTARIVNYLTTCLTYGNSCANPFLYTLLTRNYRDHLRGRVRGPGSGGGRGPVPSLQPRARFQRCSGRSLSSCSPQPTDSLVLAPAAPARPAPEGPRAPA
Nature of the experiment: Receptor Selection and Amplification (R-SAT) functional assay, NIH3T3 cells transfected with human urotensin II receptor and β-galactosidase marker. The experiment is classed as cell-based. The following applies: for EC50 / pEC50: Table 3, negative of the log EC50 in molarity, average ± standard deviation (or range) of determinations, eight doses in triplicate; for Emax: NIH3T3, Table 3, percent activation normalized to the reference ligand assigned 100%, read-out: Efficacy. The method, then: The functional receptor assay, Receptor Selection and Amplification Technology (R-SAT™), was used (with minor modifications from the procedure described previously (Brann, M. R. U.S. Pat. No. 5,707,798, 1998; Chem. Abstr. 1998, 128, 111548) to screen compounds for efficacy at the UII receptor. The RSAT assay was conducted as described herein.
Briefly, NIH3T3 cells were grown in tissue culture treated rollerbottles to 40-80% confluence in Dulbecco's modified Eagle's medium (DMEM) supplemented with 10% bovine calf serum (Hyclone) and 1% penicillin/streptomycin/glutamine (Invitrogen). Cells were transfected for 12-18 hours with the human urotensin II receptor and the β-galactosidase marker. After transfection, the cells were trypsinized, harvested and frozen in DMEM containing 10% DMSO. Frozen cells were later thawed and tested for a response to a control compound to perform quality control before initiation of pharmacological testing, ensuring the correct pharmacological response and sufficient sensitivity. To initiate the pharmacological assay, cells were thawed rapidly and prepared in DMEM media containing 0.4% calf serum (Hyclone), 30% UltraCulture (Biowhittaker), and 1% penicillin/streptomycin/glutamine (Invitrogen), and then plated at 10,000-40,000 cells per well of a 96½ area plate that contained either the test compounds or reference ligands. Cells were then grown in a humidified atmosphere with 5% ambient CO2 for five days. Media was then removed from the plates and marker gene activity was measured by the addition of the beta-galactosidase substrate ONPG (in PBS with 5% NP-40). The resulting colorimetric reaction was measured in a spectrophotometric plate reader (Titertek Inc.) at […].
pEC50 represents the negative logarithm of the concentration of ligand that caused 50% activation of the basal receptor response. Percent activation was calculated as the difference between the absorbance measurements in the absence of added ligand compared with that in the presence of saturating concentrations of ligand normalized to the absorbance difference for the reference ligand, which was assigned a value of 100%.
Results were determined in R-SAT assays and are expressed as pEC50, the negative of the log EC50 in molarity. Results are the average±standard deviation of 2-X determinations of the EC50 where each compound was tested in eight doses in triplicate.

In turn, `CN(C)CCC(NC(=O)c1ccc(-c2ccccc2)cc1)c1ccc(Cl)cc1.O=C(O)C(=O)O` (single isomer, unassigned; (+)) [(+) 5o, (+)-N-[1-(4-Chlorophenyl)-3-dimethylamino-propyl]-4-phenyl-benzamide oxalate] had a concentration giving a half-maximal response (EC50) of 0.0123 to 0.0275 µM. Besides, the Efficacy (Table 3, percent activation normalized to the reference ligand assigned 100%, oxalate) is listed as 104-108%.
For the compound `CN(C)CCC(NC(=O)c1ccc(-c2ccccc2)cc1)c1ccc(Cl)cc1` (single isomer, unassigned; (-)) [(−) 5o, (−)-N-[1-(4-Chlorophenyl)-3-dimethylamino-propyl]-4-phenyl-benzamide oxalate], the Emax fell in the range of 112 to 114% and the EC50 is 1.15 to 1.2 µM.
In the case of `CO[C@@H](C(=O)NC(CCN(C)C)c1ccc(Cl)cc1)c1ccccc1` (single isomer, unassigned; (-)) [(−) 5s, oxalate], the Emax stood at 165 ± 10% and the EC50 was 0.871 µM.
Take `Cc1ccccc1C(=O)OC(CCN(C)C)c1ccc(Cl)cc1.Cl` (stereo not drawn) [4a, 1-(4-Chlorophenyl)-3-dimethylamino-propyl 2-methyl-benzoate HCl]: the Emax turned out to be 126 ± 34% and the pEC50 amounted to 5.77 ± 0.01.
On the same counts, the results for `CCc1ccccc1C(=O)OC(CCN(C)C)c1ccc(Cl)cc1.Cl` (stereo not drawn) [4b, 1-(4-Chlorophenyl)-3-dimethylamino-propyl 2-ethyl-benzoate HCl] are 128 ± 31% and 5.89 ± 0.05.
For the compound `Cc1ccc(C(=O)OC(CCN(C)C)c2ccc(Cl)cc2)cc1.Cl` (stereo not drawn) [4c, 1-(4-Chlorophenyl)-3-dimethylamino-propyl 4-methyl-benzoate HCl], the Emax came to 56 ± 6% and the pEC50 worked out at 5.56 ± 0.01.
In the case of `Cc1cccc(C(=O)OC(CCN(C)C)c2ccc(Cl)cc2)c1C` (stereo not drawn) [4d, 1-(4-Chlorophenyl)-3-dimethylamino-propyl 2,3-dimethyl-benzoate HCl], the Emax amounted to 94 ± 42% and the concentration for a half-maximal effect (EC50) was 1.26 µM.
In the same order, the values of `COc1cccc(C(=O)OC(CCN(C)C)c2ccc(Cl)cc2)c1C` (stereo not drawn) [4e, 1-(4-Chlorophenyl)-3-dimethylamino-propyl 3-methoxy-2-methyl-benzoate HCl] are 120 ± 57% and 2.09 µM.
On to `Cc1c(Cl)cccc1C(=O)OC(CCN(C)C)c1ccc(Cl)cc1.Cl` (stereo not drawn) [4f, 1-(4-Chlorophenyl)-3-dimethylamino-propyl 3-chloro-2-methyl-benzoate HCl], for which the Emax was determined as 118 ± 37% and the pEC50 is 5.95 ± 0.05.
On the same counts, the results for `Cc1cc(Br)ccc1C(=O)OC(CCN(C)C)c1ccc(Cl)cc1.Cl` (stereo not drawn) [4g, 1-(4-Chlorophenyl)-3-dimethylamino-propyl 4-bromo-2-methyl-benzoate HCl] are 95 ± 37% and 5.97 ± 0.24.
With `Cc1ccc(C)c(C(=O)OC(CCN(C)C)c2ccc(Cl)cc2)c1.Cl` (stereo not drawn) [4h, 1-(4-Chlorophenyl)-3-dimethylamino-propyl 2,5-dimethyl-benzoate HCl], the Emax was 86% and the pEC50 is 5.73 ± 0.15.
In the same order, the values of `Cc1cc(C)c(C(=O)OC(CCN(C)C)c2ccc(Cl)cc2)cc1C.Cl` (stereo not drawn) [4i, 1-(4-Chlorophenyl)-3-dimethylamino-propyl 2,4,5-trimethyl-benzoate HCl] are 60 ± 4% and 6.33 ± 0.6.
In the same order, the values of `Cc1ccsc1C(=O)OC(CCN(C)C)c1ccc(Cl)cc1.Cl` (stereo not drawn) [4j, 1-(4-Chlorophenyl)-3-dimethylamino-propyl 3-methyl-thiophene-2-carboxylate HCl] are 119 ± 44% and 5.60 ± 0.05.
On the same counts, the results for `CN(C)CCC(OC(=O)c1cccc2ccccc12)c1ccc(Cl)cc1.Cl` (stereo not drawn) [4k, 1-(4-Chlorophenyl)-3-dimethylamino-propyl naphthalene-1-carboxylate HCl] are 95 ± 24% and 5.64 ± 0.02.
`CN(C)CCC(OC(=O)c1ccc2ccccc2c1)c1ccc(Cl)cc1.Cl` (stereo not drawn) [4l, 1-(4-Chlorophenyl)-3-dimethylamino-propyl naphthalene-2-carboxylate HCl]: the Emax worked out at 49 ± 28% and the negative-log EC50 (pEC50) is 5.68 ± 0.04.
